According to patent US4699897A, “Biologically active peptides structurally related to regions within growth hormones” (Amgen, priority 1983, dated 1987):
Square brackets hold non-standard residues; d marks the D form. Peptide text beside a SMILES is read from it.

Tests used:
[1] = system: ob/ob, ob/+, db/db and db/m mice; assay: Insulin potentiating effects of Peptide No. 6 compared to DP in mice (plasma glucose); type: in vivo, mouse; conditions: for Plasma Glucose (mg/dL at 60 min.), Glucose + Insulin + peptide, Mouse db/db / Plasma Glucose (mg/dL at 60 min.), Glucose + Insulin + peptide, Mouse db/m (normal) / Plasma Glucose (mg/dL at 60 min.), Glucose + Insulin + peptide, Mouse ob/+ (normal) / Plasma Glucose (mg/dL at 60 min.), Glucose + Insulin + peptide, Mouse ob/ob: i.p. glucose + insulin 0.001 mU/10 g + peptide 5 μg/10 g
Experimental: (§1) A study was conducted to determine the relative insulin potentiating effects of Peptide No. 6 as compared to those of deletion peptide ("hGH32-46 ").
(§2) Animals in test groups of five each were meployed in these procedures. Sprague-Dawley rats weighed approximately 200 grams; homozygous genetically abnormal mice (db/db and ob/ob) had weights in the range of 40 to 60 grams; heterozygous normal mice all weighed approximately 25 grams. Glucose was administered intraperitoneally at a dosage of […] of a solution containing 135 mg/ml glucose, except for one group of rats which were given an oral dose of 1 ml of 270 mg/ml glucose solution. Insulin was intraperitoneally administered at a dose of 0.001 mU/10 g and both Peptide No. 6 and deletion peptide were administered were simultaneously administered at a dose of 5 μg/10 g.

Sprague-Dawley rats = assay: Insulin potentiating effects of Peptide No. 6 compared to DP in rats (plasma glucose); type: in vivo; conditions: for Plasma Glucose (mg/dL at 60 min.), Glucose + Insulin + peptide, Rat (normal): i.p. glucose + insulin 0.001 mU/10 g + peptide 5 μg/10 g
Experimental: as §1, §2

[2] = system: normal female Rhesus monkeys; assay: Insulin potentiating effects in primates of Peptide No. 6 compared to deletion peptide (plasma glucose); type: in vivo, Rhesus monkey
Experimental: In a manner analogous to Study C, above, Peptide No. 6 and deletion peptide were studied for insulin potentiating effects in Rhesus monkeys. Blood samples were drawn from normal female monkeys (in […] experimental groups of 3) five minutes before administration of an oral dose of 3.0 ml/kg of 0.5 g/ml glucose and intramuscular administration of either: (1) 0.5 ml/kg phosphate buffered saline (PBS), pH 7.4; (2) deletion peptide 0.1 ml/kg of 1.0 mg/ml solution in PBS; (3) deletion peptide as above combined with 0.5 ml/kg of 20 mU/ml insulin in PBS; or (4) insulin alone as above or (5) Peptide No. 6 0.1 ml/kg of a 0.5 mg/ml solution in PBS combined with insulin as above. Blood samples were then periodically withdrawn over two hours and analyzed for plasma glucose levels.

normal rats [3] = conditions: cited from earlier work
[4] = system: GT-impaired strain of mice (YS/Wf Nctr); conditions: cited from earlier work
[5] = system: insulin-stimulated fat cells of older obese rats; conditions: cited from earlier work
[6] = system: various model animal test systems; conditions: cited from earlier work
[7] = system: normal male Sprague-Dawley rats; assay: Insulin potentiating effects in normal rats (plasma glucose after i.p. glucose load); type: in vivo, rat; conditions: for Plasma Glucose (mg/dL at 60 min.), Glucose + Insulin + Peptide: rats fasted 18 h, i.p. 1.0 ml 0.75M glucose + 15 mU insulin + 25 μg peptide, mean ± standard error
Experimental: A study was conducted to determine insulin potentiating effects of Peptide Nos. 3, 5, and 6. Also tested was a dipeptide NH2 -Ile-Pro-COOH, a dipeptide outside the scope of the invention. Test groups of 5 normal male Sprague-Dawley rats weighing about 200 grams were fasted for 18 hours and received (intraperitoneally in rapid succession) 1.0 ml of 0.75M glucose, and either 15 mU of insulin with 1% bovine serum ablumin in normal saline (pH 7.4) or a mixture of insulin as above with 25 μg Peptide Nos. 3, 5, 6 and dipeptide. Controls received only bovine serum albumin and saline. Blood was drawn after one hour and plasma glucose levels were determined.

db/db mice = assay: Insulin potentiating effects on genetically altered mice at differing ages (plasma glucose); type: in vivo, mouse; conditions: for Plasma Glucose (mg/dL at 60 min.), Age: 8 weeks, Glucose + Insulin + Peptide: db/db mice aged 8 weeks; for Plasma Glucose (mg/dL at 60 min.), Age: 8 weeks, Glucose + Insulin + Peptide / Plasma Glucose (mg/dL at 60 min.), Age: 14 weeks, Glucose + Insulin + Peptide: i.p. glucose + insulin 0.001 mU/10 g + peptide 5 μg/10 g; for Plasma Glucose (mg/dL at 60 min.), Age: 14 weeks, Glucose + Insulin + Peptide: db/db mice aged 14 weeks
Experimental: A study was conducted to ascertain insulin potentiating effects of Peptide Nos. 6, 9 and 10 on db/db mice aged 8 weeks and 14 weeks.
Test groups of 5 each of db/db mice weighing from 40 to 60 grams each were used. Glucose was administered intraperitoneally at a dosage of […] of a solution containing 135 mg/ml glucose. Insulin was intraperitoneally administered at a dose of 0.001 mU/10 g and Peptide Nos. 6, 9 and 10 were each simultaneously administered at a dose of 5 μg/10 g.

rabbits = conditions: cited from earlier work
normal rats [8] = conditions: cited from earlier work; remark: listed apart in the source

## CC[C@H](C)[C@H](NC(=O)[C@H](Cc1ccc(O)cc1)NC(=O)[C@H](C)NC(=O)[C@H](CCC(=O)O)NC(=O)[C@@H](N)CCC(=O)O)C(=O)N1CCC[C@H]1C(=O)N[C@@H](CCCCN)C(=O)N[C@@H](CCC(=O)O)C(=O)N[C@@H](CCC(N)=O)C(=O)N[C@@H](CCCCN)C(=O)N[C@@H](Cc1ccc(O)cc1)C(=O)N[C@@H](CO)C(=O)N[C@@H](Cc1ccccc1)C(=O)N[C@@H](CC(C)C)C(=O)N[C@@H](CCC(N)=O)C(=O)O [hGH32-46, NH2 -Glu-Glu-Ala-Tyr-Ile-Pro-Lys-Glu-Gln-Lys-Tyr-Ser-Phe-Leu-Gln-COOH] (H-EEAYIPKEQKYSFLQ-OH)
[1]
  Plasma Glucose (mg/dL at 60 min.), Glucose + Insulin + peptide, Mouse db/db: 134 ± 13 mg/dL
  Plasma Glucose (mg/dL at 60 min.), Glucose + Insulin + peptide, Mouse db/m (normal): 49 ± 12 mg/dL
  Plasma Glucose (mg/dL at 60 min.), Glucose + Insulin + peptide, Mouse ob/+ (normal): 56 ± 9 mg/dL
  Plasma Glucose (mg/dL at 60 min.), Glucose + Insulin + peptide, Mouse ob/ob: 138 ± 11 mg/dL
Sprague-Dawley rats; glucose administered orally (1 ml of 270 mg/ml) + insulin 0.001 mU/10 g + peptide 5 μg/10 g
  Plasma Glucose (mg/dL at 60 min.), Glucose + Insulin + peptide, Rat* (normal): 93.3 ± 14 mg/dL
Sprague-Dawley rats
  Plasma Glucose (mg/dL at 60 min.), Glucose + Insulin + peptide, Rat (normal): 73 ± 10 mg/dL
[2]; +5 min., oral glucose + i.m. insulin + peptide 0.1 ml/kg of 1.0 mg/ml
  Plasma Glucose (mg/dL), Glucose + Insulin + hGH32-46, +5 min.: 64 ± 4 mg/dL
[2]; +15 min., oral glucose + i.m. insulin + peptide 0.1 ml/kg of 1.0 mg/ml
  Plasma Glucose (mg/dL), Glucose + Insulin + hGH32-46, +15 min.: 69 ± 9 mg/dL
[2]; +30 min., oral glucose + i.m. insulin + peptide 0.1 ml/kg of 1.0 mg/ml
  Plasma Glucose (mg/dL), Glucose + Insulin + hGH32-46, +30 min.: 80 ± 5.3 mg/dL
[2]; +45 min., oral glucose + i.m. insulin + peptide 0.1 ml/kg of 1.0 mg/ml
  Plasma Glucose (mg/dL), Glucose + Insulin + hGH32-46, +45 min.: 80 ± 5.9 mg/dL
[2]; +60 min., oral glucose + i.m. insulin + peptide 0.1 ml/kg of 1.0 mg/ml
  Plasma Glucose (mg/dL), Glucose + Insulin + hGH32-46, +60 min.: 96 ± 8 mg/dL
[2]; +120 min., oral glucose + i.m. insulin + peptide 0.1 ml/kg of 1.0 mg/ml
  Plasma Glucose (mg/dL), Glucose + Insulin + hGH32-46, +120 min.: 97 ± 6.6 mg/dL
Normal rats [3]
  late increases in free fatty acids and glycemic effects: did not show either the late increases in free fatty acids nor the glycemic effects which are characteristic of intact hGH
[4]
  glucose tolerance: unspecified degree of improvement in glucose tolerance
[5]; insulin-stimulated fat cells of older obese rats, Frigeri et al.
  in vitro glucose utilization of fat cells: in vitro increase in glucose utilization
[6]; contemporaneously administered with exogenous insulin
  potentiation of insulin activity: potentiate insulin activity and augment the hypoglycemic effectiveness of even quite small parenteral doses of insulin
[6]; various model animal test systems
  hypoglycemic effects of the peptide alone: lacked hypoglycemic effects

## CC[C@H](C)[C@H](N)C(=O)N1CCC[C@H]1C(=O)O [NH2 --Ile--Pro--COOH, NH2 -Ile-Pro-COOH] (H-Ile-Pro-OH)
[7]
  Plasma Glucose (mg/dL at 60 min.), Glucose + Insulin + Peptide: 95 ± 30 mg/dL

## CC[C@H](C)[C@H](NC(=O)[C@H](Cc1ccc(O)cc1)NC(=O)[C@@H](C)NC(=O)[C@H](CCC(=O)O)NC(=O)[C@@H](N)CCC(=O)O)C(=O)N1CCC[C@H]1C(=O)N[C@@H](CCCCN)C(=O)O [Peptide No. 9] (H-EE[dA]YIPK-OH)
db/db mice
  Plasma Glucose (mg/dL at 60 min.), Age: 8 weeks, Glucose + Insulin + Peptide: 90.8 ± 16 mg/dL
  Plasma Glucose (mg/dL at 60 min.), Age: 14 weeks, Glucose + Insulin + Peptide: 228 ± 38 mg/dL

## CC[C@H](C)[C@H](NC(=O)[C@H](Cc1ccc(O)cc1)NC(=O)[C@H](C)NC(=O)[C@H](CCC(=O)O)NC(=O)[C@@H](N)CCC(=O)O)C(=O)N1CCC[C@H]1C(=O)N[C@@H](CCCCN)C(=O)O [Peptide No. 6, GLU--GLU--ALA--TYR--ILE--PRO--LYS] (H-EEAYIPK-OH)
[7]; normal rats, Table III
  insulin potentiating effect (in words): exceptionally active insulin potentiator
[7]
  Plasma Glucose (mg/dL at 60 min.), Glucose + Insulin + Peptide: 52 ± 28 mg/dL
db/db mice; db/db mice aged 8 and 14 weeks, Table IV
  insulin potentiating effect (in words): significant effectiveness
db/db mice
  Plasma Glucose (mg/dL at 60 min.), Age: 8 weeks, Glucose + Insulin + Peptide: 92.3 ± 12 mg/dL
  Plasma Glucose (mg/dL at 60 min.), Age: 14 weeks, Glucose + Insulin + Peptide: 124 ± 34 mg/dL
[1]
  Plasma Glucose (mg/dL at 60 min.), Glucose + Insulin + peptide, Mouse db/db: 109 ± 22 mg/dL
  Plasma Glucose (mg/dL at 60 min.), Glucose + Insulin + peptide, Mouse db/m (normal): 22 ± 10 mg/dL
  Plasma Glucose (mg/dL at 60 min.), Glucose + Insulin + peptide, Mouse ob/+ (normal): 28.5 ± 5 mg/dL
  Plasma Glucose (mg/dL at 60 min.), Glucose + Insulin + peptide, Mouse ob/ob: 118 ± 20 mg/dL
[1]; mice and rats, Table V
  insulin potentiating effect relative to deletion peptide (in words): uniformly more effective in potentiating insulin effects than deletion peptide alone
Sprague-Dawley rats
  Plasma Glucose (mg/dL at 60 min.), Glucose + Insulin + peptide, Rat (normal): 52 ± 6 mg/dL
[2]; +5 min., oral glucose + i.m. insulin + peptide 0.1 ml/kg of 0.5 mg/ml
  Plasma Glucose (mg/dL), Glucose + Insulin + Peptide No. 6, +5 min.: 62 ± 6 mg/dL
[2]; +15 min., oral glucose + i.m. insulin + peptide 0.1 ml/kg of 0.5 mg/ml
  Plasma Glucose (mg/dL), Glucose + Insulin + Peptide No. 6, +15 min.: 69.5 ± 6 mg/dL
[2]; +30 min., oral glucose + i.m. insulin + peptide 0.1 ml/kg of 0.5 mg/ml
  Plasma Glucose (mg/dL), Glucose + Insulin + Peptide No. 6, +30 min.: 68 ± 9.7 mg/dL
[2]; +45 min., oral glucose + i.m. insulin + peptide 0.1 ml/kg of 0.5 mg/ml
  Plasma Glucose (mg/dL), Glucose + Insulin + Peptide No. 6, +45 min.: 73 ± 3.5 mg/dL
[2]; +60 min., oral glucose + i.m. insulin + peptide 0.1 ml/kg of 0.5 mg/ml
  Plasma Glucose (mg/dL), Glucose + Insulin + Peptide No. 6, +60 min.: 79 ± 6.5 mg/dL
[2]; +120 min., oral glucose + i.m. insulin + peptide 0.1 ml/kg of 0.5 mg/ml
  Plasma Glucose (mg/dL), Glucose + Insulin + Peptide No. 6, +120 min.: 88 ± 12 mg/dL
[2]; Table VI
  insulin potentiating effect relative to deletion peptide (in words): essentially on par with, or superior on a weight basis to, those of deletion peptide

## synthetic tetradecapeptide having a sequence of amino acids copying residues at positions 31 through 44: literature tetradecapeptide copying hGH residues 31 through 44 (Yudaev et al.) (FEEAYIPKEQKYSF; UniProt P01241 57-70, looked up, fragment)
[5]; Yudaev et al. 1983
  in vitro effect on fat cells: substantially the same in vitro effect on fat cells
rabbits
  in vivo hypoglycemic effect: absence of any in vivo hypoglycemic effect
Normal rats [8]
  in vivo hypoglycemic effect: absence of any in vivo hypoglycemic effect
